The results in this text go back to patent publication US8580833B2, “Substituted imidazole derivatives and methods of use thereof” (TransTech Pharma, Inc., priority 2009, dated 2013).

In series [1] the target is T1, RAGE (sRAGE) with β-amyloid as the RAGE ligand (Homo sapiens, UniProt Q15109).
T1 construct: generate soluble RAGE (sRAGE) comprised of the V and C domains
As to the kind of experiment: ELISA: inhibition of sRAGE binding to plate-bound β-amyloid. The settings on record: sRAGE 6 nM, hydrochloride salt form. The procedure:
(§1) The following assay method may be used to identify compounds of Formula (I) or pharmaceutically acceptable salts thereof which are useful as inhibitors of binding of physiological RAGE ligands, such as S100b and β-amyloid, to RAGE.
(§2) S100b, β-amyloid, or CML (500 ng/100 μL/well) in 100 mM sodium bicarbonate/sodium carbonate buffer (pH 9.8) is loaded onto the wells of a NUNC Maxisorp flat bottom 96-well microtitre plate. The plate is incubated at 4° C. overnight. The wells are aspirated and treated with 50 mM imidazole buffer saline (pH 7.2) (with 5 mM CaCl2/MgCl2) containing 1% bovine serum albumin (BSA) (300 μL/well) for 1 h at RT. The wells are aspirated.
(§3) Test compounds are dissolved in nanopure water (concentration: 10-100 μM). DMSO may be used as co-solvent. 25 μL of test compound solution in 4% DMSO is added, along with 75 μL sRAGE (6 nM FAC) to each well and samples are incubated for 1 h at 37° C. The wells are washed several times with 155 mM NaCl pH 7.2 buffer saline and are soaked for several seconds between each wash.
(§4) Non-radioactive detection is performed by adding:
(§5) 10 μL Biotinylated goat F(ab′)2 Anti-mouse IgG. (8.0×10-4 mg/mL, FAC), 5 μL Alk-phos-Streptavidin (3×10-3 mg/mL FAC), 0.42 μL per 5 mL Monoclonal antibody for sRAGE (FAC 6.0×10-3 mg/mL) to 5 mL 50 mM imidazole buffer saline (pH 7.2) containing 0.2% bovine serum albumin and 5 mM CaCl2. The mixture is incubated for 30 minutes at RT.
(§6) 100 μL of complex is added to each well and incubation is allowed to proceed at rt for 1 h. Wells are washed several times with wash buffer and soaked several seconds between each wash. 100 μL 1 mg/mL (pNPP) in 1 M diethanolamine (pH adjusted to 9.8 with HCl) is added. Color is allowed to develop in the dark for 30 min to 1 h at rt. The reaction is quenched with 10 μL of stop solution (0.5-1.0 N NaOH in 50% ethanol) and the absorbance is measured spectrophotometrically with a microplate reader at 405 nm.
(§7) IC50 (μM) of in the ELISA assay represents the concentration of compound at which 50% signal has been inhibited.

The target of series [2] is T2, RAGE (sRAGE) with S100b as the RAGE ligand (Homo sapiens, UniProt Q15109).
T2 construct: generate soluble RAGE (sRAGE) comprised of the V and C domains
Nature of the series: ELISA: inhibition of sRAGE binding to plate-bound S100b. The note with it: sRAGE 6 nM, hydrochloride salt form. As to the method:
as §1, §2, §3, §4, §5, §6, §7
(An ELISA detects its analyte on a solid surface through an enzyme-linked reagent.)

Series [3] in a line: Pharmacokinetic screening in rats, brain and plasma concentrations at 6 hour time point. In kind it is in vivo. The note with it: male, Sprague Dawley, rat, 5 mg/kg oral (PO), 6 hour time point; for concentration at 6 h: 2% Tween 80 in distilled water; for Kp at 6 h: brain/plasma ratio, read-out: B/P Ratio. As to the method: Pharmacokinetic screening in rats was performed on various compounds to measure brain and plasma concentrations at 6 hour time point.
The parameters for the pharmacokinetic protocol were as follows.
Amount of compound: 5 mg/kg
Species: Rat; Strain: Sprague Dawley; Sex: Male
Average body weight at dose: weight ranged from 271 to 423 grams
Average age at dose: age ranged from 9 to 14 weeks
Diet Status Overnight fasting
Number of Animals (n) for each time point: 2
Formulation: 2% Tween 80 in distilled water
Each formulation was administered once by oral gavage. The dose volume was 5 mL/kg for all animals. The actual volume administered to each animal was calculated and adjusted based on the most recent body weight.
Blood samples (approximately 300 μL whole blood) at (1, 2, and 4 h) was collected from each animal via tail vein except for terminal blood samples. Terminal blood (6 h) samples were collected via cardiac puncture. All samples were collected into tubes containing lithium heparin (Multivette 600 LH-Gel, Sarstedt, Newton, N.C., USA). Following collection, the tubes were placed in refrigerator (maximum 30 minutes) or until centrifugation under refrigeration (at 2 to 8° C.) at 1500 g for approximately 15 minutes. Each harvested plasma sample was then transferred into 1.2 mL polypropylene tubes, on the 96-Well Plate according to the 96-Well Plate plasma sample map and kept in freezer. Plasma samples were then analyzed for test substances.
Brain samples were collected immediately after the animals were euthanized at designated time points. Brain samples were rinsed with saline, blotted dry, and weighed. Brain samples were placed into individual containers and kept in freezer (−20° C.). Brain samples were then analyzed for test articles.
After analysis, all the plasma results are reported as ng/mL and brain sample results are reported as ng/g. In the table below, “ND” stands for not determined and “NA” stands for not applicable.

The mark [4] stands for this setting: brain, read-out: Brain concentration.
The mark [5] stands for this setting: plasma, read-out: Plasma concentration.

Structures can show the parent of a compound that is named as a salt. Where two headings read alike, the source gives them in different places.

T1 sequence (Q15109 23-342 limits assumed): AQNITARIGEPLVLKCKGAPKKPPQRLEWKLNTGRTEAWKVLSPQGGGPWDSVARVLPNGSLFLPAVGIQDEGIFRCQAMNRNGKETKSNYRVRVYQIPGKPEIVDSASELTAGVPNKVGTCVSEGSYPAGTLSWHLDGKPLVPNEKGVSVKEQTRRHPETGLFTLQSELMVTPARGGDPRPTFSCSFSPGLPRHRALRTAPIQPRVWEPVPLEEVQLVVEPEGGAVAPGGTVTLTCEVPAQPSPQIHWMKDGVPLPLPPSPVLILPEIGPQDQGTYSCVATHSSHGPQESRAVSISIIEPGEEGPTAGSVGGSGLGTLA
T2 sequence (Q15109 23-342 limits assumed): as above

Consider `CCOCc1nc(-c2ccc(OC[C@@H](O)CNC)cc2)cn1-c1ccc(Oc2ccc(Cl)cc2)cc1` [Example 14, (S)-1-(4-{1-[4-(4-chloro-phenoxy)-phenyl]-2-ethoxymethyl-1H-imidazol-4-yl}-phenoxy)-3-methylamino-propan-2-ol dihydrochloride], for which the 50% inhibitory concentration (IC50) in series [1] was determined as 2.37 µM; in series [2], 4.56 µM.
For `CCCCc1nc(-c2ccc(OC[C@@H](O)CNC)cc2)cn1-c1ccc(Oc2ccc(Cl)cc2)cc1` [Example 10, (S)-1-(4-{2-butyl-1-[4-(4-chloro-phenoxy)-phenyl]-1H-imidazol-4-yl}-phenoxy)-3-methylamino-propan-2-ol dihydrochloride], the concentration at 6 h stood at 212 ng/g in series [3] (setting [4]) and 0.074 µg/mL in series [3] (setting [5]). Further, in series [3], the Kp at 6 h amounted to 2.9. Besides, the 50% inhibitory concentration (IC50) was found to be 1.32 µM in series [1] and 1.14 µM in series [2].
As for `CCOCc1nc(-c2ccc(OC[C@H](O)CN(C)C)cc2)cn1-c1ccc(Oc2ccc(Cl)cc2)cc1` [Example 5, (R)-1-(4-{1-[4-(4-chloro-phenoxy)-phenyl]-2-ethoxymethyl-1H-imidazol-4-yl}-phenoxy)-3-dimethylamino-propan-2-ol dihydrochloride], the concentration at 6 h amounted to 3320 ng/g in series [3] (setting [4]) and 0.2 µg/mL in series [3] (setting [5]). In series [3], the Kp at 6 h amounted to 16.7. Moreover, the half-inhibitory concentration (IC50) in series [1] was found to be 1.02 µM; in series [2] it was 0.71 µM.
`CCOCc1nc(-c2ccc(OC[C@@H](O)CN(CC)CC)cc2)cn1-c1ccc(Oc2ccc(Cl)cc2)cc1` [Example 8, (S)-1-(4-{1-[4-(4-chloro-phenoxy)-phenyl]-2-ethoxymethyl-1H-imidazol-4-yl}-phenoxy)-3-diethylamino-propan-2-ol dihydrochloride]: the concentration at 6 h in series [3] (setting [4]) is 2700 ng/g; in series [3] (setting [5]), 0.137 µg/mL. The Kp at 6 h in series [3] stood at 19.6. The results for the IC50 in series [1] and in series [2] were 1.26 µM and 0.8 µM, respectively.
In the case of `CCCCc1nc(-c2ccc(OC[C@H](O)CNC)cc2)cn1-c1ccc(Oc2ccc(Cl)cc2)cc1` [Example 9, (R)-1-(4-{2-butyl-1-[4-(4-chloro-phenoxy)-phenyl]-1H-imidazol-4-yl}-phenoxy)-3-methylamino-propan-2-ol dihydrochloride], the concentration at 6 h was 537 ng/g in series [3] (setting [4]) and 0.076 µg/mL in series [3] (setting [5]). In addition, the Kp at 6 h in series [3] came to 7.2. The values for the half-inhibitory concentration (IC50) in series [1] and in series [2] were 1.59 µM and 1.13 µM, respectively.
On to `CCCCc1nc(-c2ccc(OC[C@H](O)CNCC)cc2)cn1-c1ccc(Oc2ccc(Cl)cc2)cc1` [Example 11, (R)-1-(4-{2-butyl-1-[4-(4-chloro-phenoxy)-phenyl]-1H-imidazol-4-yl}-phenoxy)-3-ethylamino-propan-2-ol dihydrochloride], for which the concentration at 6 h amounted to 343 ng/g in series [3] (setting [4]) and 0.072 µg/mL in series [3] (setting [5]). Besides, the Kp at 6 h in series [3] was 4.8. Further, the results for the concentration for half-maximal inhibition (IC50) in series [1] and in series [2] were 1.02 µM and 0.81 µM, respectively.
The matching figures for `CCCCc1nc(-c2ccc(OC[C@@H](O)CN(C)C)cc2)cn1-c1ccc(Oc2ccc(Cl)cc2)cc1` [Example 3, (S)-1-(4-{2-butyl-1-[4-(4-chloro-phenoxy)-phenyl]-1H-imidazol-4-yl}-phenoxy)-3-dimethylamino-propan-2-ol dihydrochloride]: 1120 ng/g, 0.048 µg/mL, 23.3, 0.8 µM and 0.84 µM.
The matching figures for `CCOCc1nc(-c2ccc(OC[C@H](O)CN(CC)CC)cc2)cn1-c1ccc(Oc2ccc(Cl)cc2)cc1` [Example 7, (R)-1-(4-{1-[4-(4-chloro-phenoxy)-phenyl]-2-ethoxymethyl-1H-imidazol-4-yl}-phenoxy)-3-diethylamino-propan-2-ol dihydrochloride]: 1380 ng/g, 0.153 µg/mL, 9.1, 1.17 µM and 1.05 µM.
`CCOCc1nc(-c2ccc(OC[C@@H](O)CN(C)C)cc2)cn1-c1ccc(Oc2ccc(Cl)cc2)cc1` [Example 6, (S)-1-(4-{1-[4-(4-chloro-phenoxy)-phenyl]-2-ethoxymethyl-1H-imidazol-4-yl}-phenoxy)-3-dimethylamino-propan-2-ol dihydrochloride]: the values for the concentration at 6 h in series [3] (setting [4]) and in series [3] (setting [5]) were 3900 ng/g and 0.155 µg/mL, respectively. In addition, the Kp at 6 h in series [3] stood at 25.3. Moreover, the IC50 in series [1] was 0.78 µM; in series [2] it was 0.77 µM.
The matching figures for `CCCCc1nc(-c2ccc(OC[C@H](O)CN(CC)CC)cc2)cn1-c1ccc(Oc2ccc(Cl)cc2)cc1` [Example 2, (R)-1-(4-{2-butyl-1-[4-(4-chloro-phenoxy)-phenyl]-1H-imidazol-4-yl}-phenoxy)-3-diethylamino-propan-2-ol dihydrochloride]: 718 ng/g, 0.024 µg/mL, 30.6, 0.76 µM and 0.55 µM.
Consider `CCCCc1nc(-c2ccc(OC[C@H](O)CN(C)C)cc2)cn1-c1ccc(Oc2ccc(Cl)cc2)cc1` [Example 1, (R)-1-(4-{2-butyl-1-[4-(4-chloro-phenoxy)-phenyl]-1H-imidazol-4-yl}-phenoxy)-3-dimethylamino-propan-2-ol dihydrochloride], for which the concentration at 6 h in series [3] (setting [4]) was 626 ng/g; in series [3] (setting [5]), 0.018 µg/mL. In addition, the Kp at 6 h in series [3] was 34.1. For the same compound, the 50% inhibitory concentration (IC50) was 0.85 µM in series [1] and 0.66 µM in series [2].
Consider `CCOCc1nc(-c2ccc(OC[C@H](O)CNC)cc2)cn1-c1ccc(Oc2ccc(Cl)cc2)cc1` [Example 13, (R)-1-(4-{1-[4-(4-chloro-phenoxy)-phenyl]-2-ethoxymethyl-1H-imidazol-4-yl}-phenoxy)-3-methylamino-propan-2-ol dihydrochloride], for which the IC50 in series [1] came out at 2.16 µM; in series [2] it was 4.61 µM.
As to `CCCCc1nc(-c2ccc(OC[C@@H](O)CNCC)cc2)cn1-c1ccc(Oc2ccc(Cl)cc2)cc1` [Example 12, (S)-1-(4-{2-butyl-1-[4-(4-chloro-phenoxy)-phenyl]-1H-imidazol-4-yl}-phenoxy)-3-ethylamino-propan-2-ol dihydrochloride], the concentration at 6 h in series [3] (setting [4]) was 540 ng/g; in series [3] (setting [5]), 0.124 µg/mL. For the same compound, the Kp at 6 h in series [3] worked out at 4.5. Besides, the half-inhibitory concentration (IC50) turned out to be 1.19 µM in series [1] and 0.98 µM in series [2].
On to `CCNC[C@@H](O)COc1ccc(-c2cn(-c3ccc(Oc4ccc(Cl)cc4)cc3)c(COCC)n2)cc1` [Example 15, (R)-1-(4-{1-[4-(4-chloro-phenoxy)-phenyl]-2-ethoxymethyl-1H-imidazol-4-yl}-phenoxy)-3-ethylamino-propan-2-ol dihydrochloride], for which the IC50 in series [1] was 2.47 µM; in series [2], 3.14 µM.
Regarding `CCNC[C@H](O)COc1ccc(-c2cn(-c3ccc(Oc4ccc(Cl)cc4)cc3)c(COCC)n2)cc1` [Example 16, (S)-1-(4-{1-[4-(4-chloro-phenoxy)-phenyl]-2-ethoxymethyl-1H-imidazol-4-yl}-phenoxy)-3-ethylamino-propan-2-ol dihydrochloride], the IC50 in series [1] is 1.55 µM; in series [2], 3.13 µM.

One may read the IC50 as the midpoint of a concentration-inhibition curve.
